The nature of data set [1]: Encapsulation efficiency of RNA replicons (Quant-iT RiboGreen). Particulars: LNP 40% cationic lipid, 10% DSPC, 48% cholesterol, 2% PEG-DMG; RNA replicon. Type of data set: physicochemical. Here is the method: Briefly, lipids were dissolved in ethanol (2m1), a RNA replicon was dissolved in buffer (2 ml, 100 mM sodium citrate, pH 6) and these were mixed with 2 ml of buffer followed by 1 hour of equilibration. The mixture was then dialized overnight against 1×PBS. The resulting product contained liposomes, with ˜70-95% encapsulation efficiency.
The percentage of encapsulated RNA and RNA concentration were determined by Quant-iT RiboGreen RNA reagent kit (Invitrogen), following manufacturer's instructions. The ribosomal RNA standard provided in the kit was used to generate a standard curve. LNPs were diluted 10× or 100× in 1× TE buffer (from kit) before addition of the dye. Separately, LNPs were diluted 10× or 100× in 1× TE buffer containing 0.5% Triton X before addition of the dye (to disrupt the LNPs and thus to assay total RNA). Thereafter an equal amount of dye was added to each solution and then ˜180 μL of each solution after dye addition was loaded in duplicate into a 96 well tissue culture plate. The fluorescence (Ex 485 nm, Em 528 nm) was read on a microplate reader. All LNP formulations were dosed in vivo based on the encapsulated amount of RNA.
(In general: Replicon systems follow genome replication, usually without infectious particles.)

The next data set concerns RSV F protein. Type of data set: in vivo. Particulars: Table 4, BALB/c mice, intramuscular; for Log10(IgG titer), RNA (RSV-F), 2 weeks post 2nd immunization: 100 ng dose; for Log10(IgG titer), 1 ng RNA (RSV-F), 2 weeks post 2nd immunization: 1 ng vA375 replicon in LNP, days 0 and 21.
The nature of data set [2]: Measurement of mRNA encapsulation in lipid nanoparticles (Quant-iT Ribogreen). Type of data set: physicochemical. Particulars: LNP cationic lipid/DSPC/cholesterol/stealth lipid, N:P 4:1, leptin mRNA. As to the method:
All equipment and disposable supplies are certified free of RNase activity by the manufacturer or rendered RNase free by use of the RNaseZap reagent (LifeTechnologies). mRNA is encapsulated at a cationic lipid amine to mRNA phosphate (N:P) molar ratio of 4:1. Lipids (cationic lipid, DSPC, cholesterol and lipidated PEG or stealth lipid) are dissolved in ethanol. The molar ratios are 40:10:38:2, respectively. The mixture is sonicated briefly, then gently agitated for 5 minutes and then maintained at 37° C. until use. mRNA is exchanged into citrate buffer pH 5.8-6.0 by use of Amicon Ultra-15 centrifugal concentrators, and the final concentration is adjusted to 0.5 mg/ml and held at 37° C. until use. An equal volume of lipids in ethanol, mRNA in citrate buffer, and citrate buffer alone are drawn into disposable syringes. Tubing leading from syringes containing lipids and mRNA are attached to the T junction, and tubing leading from the syringe containing citrate buffer alone is paired with the tubing exiting the T-junction over a collection vessel containing a stir bar on an active stir plate. Syringes are placed in a syringe pump set to expel contents at a flow rate of 1 ml per minute.
The pump is activated, and the collected mRNA in lipid nanoparticles is transferred to SnakeSkin dialysis tubing (10,000 MWCO, Thermo Scientific). Material is dialyzed against RNAse- and pyrogen-free 1× phosphate buffered saline overnight at 4° C.
Percent encapsulation of mRNA in lipid nanoparticles is determined using the Quant-iT Ribogreen RNA Assay kit (Life Technologies). The LNP-mRNA suspension is assayed in buffer (mRNA outside the particle), and buffer plus Triton X-100 detergent (total mRNA). The difference calculated is the mRNA inside the particle. Prepare a 1000 ng/mL stock from the RNA provided in the kit and use this to generate a standard curve (0 ng/ml, 15.63-1000 ng/ml) in TE and TE+0.75% Triton X-100. Prepare LNP-mRNA samples in TE buffer and TE buffer+0.75% Triton X-100 with appropriate dilution so that reading is in the range of standard curve (400-2,000 fold). In a 384-well plate (Costar non-treated #3573) add 0.04 ml of standard (in duplicate) or sample (in triplicate) per well. Dilute Ribogreen reagent 240-fold in TE buffer and add 0.06 ml per well. Mix contents of wells and measure fluorescence (excitation=480 nm, emission=520 nm). Subtract background values (no RNA) from standard and test sample values and determine the concentrations of RNA in the samples using the standard curves. Determine the percent encapsulation of the sample by dividing the difference in concentrations between sample+triton and sample in buffer alone by the sample+triton concentration.

Data set [3] can be described thus: Characterization of LNP formulations: Z average particle diameter and polydispersity index. Type of data set: physicochemical. Particulars: LNP formulation; for Zav (nm): Z average particle diameter; for polydispersity: polydispersity index. From the text:
The lipid nanoparticles have a size of about 1 to about 2,500 nm, about 1 to about 1,500 nm, about 1 to about 1,000 nm, in a sub-embodiment about 50 to about 600 nm, in a sub-embodiment about 50 to about 400 nm, in a sub-embodiment about 50 to about 250 nm, and in a sub-embodiment about 50 to about 150 nm. Unless indicated otherwise, all sizes referred to herein are the average sizes (diameters) of the fully formed nanoparticle, as measured by dynamic light scattering on a Malvern Zetasizer. The nanoparticle sample is diluted in phosphate buffered saline (PBS) so that the count rate is approximately 200-400 kcts. The data is presented as a weighted average of the intensity measure.

Marks after values point to notes of the source that are not given here.

For `CCCCC/C=C\C/C=C\CCCCCCCCOc1ccc(OCCCCCCCC/C=C\C/C=C\CCCCC)c(COC(=O)CCN(C)C)c1` [Example 2, 2,5-bis((9Z,12Z)-octadeca-9,12-dien-1-yloxy)benzyl 3-(dimethylamino)propanoate], in data set [1], the “Encapsulation efficiency (RNA %)” value was 13.1%. In the data set on RSV F protein, the “Log10(IgG titer), RNA (RSV-F), 2 weeks post 2nd immunization” value is listed as 4.14 (100 ng dose)*. On to `CCCCC/C=C\C/C=C\CCCCCCCCOc1ccc(OCCCCCCCC/C=C\C/C=C\CCCCC)c(COC(=O)OCCCN(C)C)c1` [Example 3, 2,5-bis((9Z,12Z)-octadeca-9,12-dienyloxy)benzyl 3-(dimethylamino)propyl Carbonate], for which the “Encapsulation efficiency (RNA %)” value in data set [1] is on record as 85.0%. Also, the “Log10(IgG titer), RNA (RSV-F), 2 weeks post 2nd immunization” value in the data set with RSV F protein was 4.77 (100 ng dose)*.

As to `CCCCCCCCCC(=O)OCCCCCCCCOc1ccc(OCCCCCCCCOC(=O)CCCCCCCCC)c(COC(=O)CCN(C)C)c1` [Example 5], in data set [2], the “% encapsulation (mRNA Leptin)” value is recorded as 59.0%. Consider `CCCCCCCCCC(=O)OCCCCCCCCOc1ccc(OCCCCCCCCOC(=O)CCCCCCCCC)c(COC(=O)C2CCN(C)CC2)c1` [Example 6, ((2-(((1-methylpiperidine-4-carbonyl)oxy)methyl)-1,4-phenylene)bis(oxy))bis(octane-8,1-diyl) bis(decanoate)], for which the “Encapsulation efficiency (RNA %)” value in data set [1] is recorded as 71.3%. Also, the “Log10(IgG titer), 1 ng RNA (RSV-F), 2 weeks post 2nd immunization” value (“Log10(IgG titer), 1 ng RNA (RSV-F)” for short) in the data set with RSV F protein is given as 4.25.

On to `CCCCCCCCCC(=O)OCCCCCCCCOc1ccc(OCCCCCCCCOC(=O)CCCCCCCCC)c(COC(=O)CCCN(C)C)c1` [Example 7, ((2-(((4-(dimethylamino)butanoyl)oxy)methyl)-1,4-phenylene)bis(oxy))bis(octane-8,1-diyl) bis(decanoate)], for which, in data set [3], the “Zav (nm)” value amounted to 100.7 nm and the polydispersity is 0.096. Also, the “% encapsulation (mRNA Leptin)” value in data set [2] is 95.4%. In addition, the “Encapsulation efficiency (RNA %)” value in data set [1] was 85.6%. The “Log10(IgG titer), 1 ng RNA (RSV-F)” value with RSV F protein stood at 4.37. `CCCCCCCCCC(=O)OCCCCCCCCOc1ccc(OCCCCCCCCOC(=O)CCCCCCCCC)c(COC(=O)C2CCN(C(C)C)CC2)c1` [Example 9, ((2-(((1-isopropylpiperidine-4-carbonyl)oxy)methyl)-1,4-phenylene)bis(oxy))bis(octane-8,1-diyl) bis(decanoate)]: in data set [3], the “Zav (nm)” value worked out at 182.6 nm and the polydispersity was 0.369. In addition, the “Encapsulation efficiency (RNA %)” value in data set [1] is 69.1%. On to `CCCCCCCCCC(=O)OCCCCCCCCOc1ccc(OCCCCCCCCOC(=O)CCCCCCCCC)c(COC(=O)OCCCN(C)C)c1` [Example 12, ((2-((((3-(dimethylamino)propoxy)carbonyl)oxy)methyl)-1,4-phenylene)bis(oxy))bis(octane-8,1-diyl) bis(decanoate)], for which, in data set [3], the “Zav (nm)” value is recorded as 97.3 nm and the polydispersity is on record as 0.116. For the same compound, the “Encapsulation efficiency (RNA %)” value in data set [1] was determined as 89.8%. Besides, in the data set with RSV F protein, the “Log10(IgG titer), 1 ng RNA (RSV-F)” value was found to be 4.40. With `CCCCCCCCCC(=O)OCCCCCCCCOc1ccc(OCCCCCCCCOC(=O)CCCCCCCCC)c(COC(=O)OCCCN(CC)CC)c1` [Example 13, ((2-((((3-(diethylamino)propoxy)carbonyl)oxy)methyl)-1,4-phenylene)bis(oxy))bis(octane-8,1-diyl) bis(decanoate)], in data set [1], the “Encapsulation efficiency (RNA %)” value is reported as 92.1%. Turning to `CCCCC/C=C\C/C=C\CCCCCCCCOc1cc(COC(=O)OCCCCN(C)C)c(OCCCCCCCC/C=C\C/C=C\CCCCC)cc1C` [Example 15, 4-(dimethylamino)butyl 4-methyl-2,5-bis((9Z,12Z)-octadeca-9,12-dienyloxy)benzyl Carbonate], in data set [3], the “Zav (nm)” value is 138.8 nm and the polydispersity was determined as 0.210. The “Encapsulation efficiency (RNA %)” value in data set [1] worked out at 82.6%. In the data set on RSV F protein, the “Log10(IgG titer), 1 ng RNA (RSV-F)” value worked out at 2.81. Regarding `CCCCCCCCOC(CCC(=O)OCCCOc1ccc(OCCCOC(=O)CCC(OCCCCCCCC)OCCCCCCCC)c(COC(=O)CCCN(C)C)c1)OCCCCCCCC` [Example 20, ((2-(((4-(Dimethylamino)butanoyl)oxy)methyl)-1,4-phenylene)bis(oxy))bis(propane-3,1-diyl) bis(4,4-bis(octyloxy)butanoate)], the “% encapsulation (mRNA Leptin)” value in data set [2] is given as 88.4%. On the same count and under the same terms, in the case of `CCCCCCCCOC(CCC(=O)OCCCCCOc1ccc(OCCCCCOC(=O)CCC(OCCCCCCCC)OCCCCCCCC)c(COC(=O)CCCN(C)C)c1)OCCCCCCCC` [Example 21, ((2-(((4-(Dimethylamino)butanoyl)oxy)methyl)-1,4-phenylene)bis(oxy))bis(pentane-5,1-diyl) bis(4,4-bis(octyloxy)butanoate)] it was 79.8%; in that of `CCCCCCCCOC(CCC(=O)OCCCCCOc1ccc(OCCCCCOC(=O)CCC(OCCCCCCCC)OCCCCCCCC)c(COC(=O)CCCN(CC)CC)c1)OCCCCCCCC` [Example 22, ((2-(((4-(diethylamino)butanoyl)oxy)methyl)-1,4-phenylene)bis(oxy))bis(pentane-5,1-diyl) bis(4,4-bis(octyloxy)butanoate)], 86.0%; in that of `CCCCCCCCOC(CCC(=O)OCCCCCOc1ccc(OCCCCCOC(=O)CCC(OCCCCCCCC)OCCCCCCCC)c(COC(=O)C2(C)CCN(C)CC2)c1)OCCCCCCCC` [Example 23, ((2-(((1,4-Dimethylpiperidine-4-carbonyl)oxy)methyl)-1,4-phenylene)bis(oxy))bis(pentane-5,1-diyl) bis(4,4-bis(octyloxy)butanoate)], 84.3%. On the same count and under the same terms, in the case of `CCCCCCCCCC(=O)OCCCCCCCCOc1ccc(COC(=O)C2(C)CCN(C)CC2)c(OCCCCCCCCOC(=O)CCCCCCCCC)c1` [Example 26, ((4-(((1,4-Dimethylpiperidine-4-carbonyl)oxy)methyl)-1,3-phenylene)bis(oxy))bis(octane-8,1-diyl) bis(decanoate)] it was 90.8%; in that of `CCCCCCCCCC(=O)OCCCCCCCCOc1ccc(COC(=O)CCCN(C)C)c(OCCCCCCCCOC(=O)CCCCCCCCC)c1` [Example 27, ((4-(((4-(Dimethylamino)butanoyl)oxy)methyl)-1,3-phenylene)bis(oxy))bis(octane-8,1-diyl) bis(decanoate)], 95.2%. With `CCCCCCCCCC(=O)OCCCCCCCCOc1ccc(COC(=O)CCCN(CC)CC)c(OCCCCCCCCOC(=O)CCCCCCCCC)c1` [Example 28, ((4-(((4-(Diethylamino)butanoyl)oxy)methyl)-1,3-phenylene)bis(oxy))bis(octane-8,1-diyl) bis(decanoate)], the “% encapsulation (mRNA Leptin)” value in data set [2] amounted to 93.6%.

For the origin of these results see patent US10844002B2, “Lipids and lipid compositions for the delivery of active agents” (priority 2014, dated 2020).
